Assay results: patent US8404677B2, “Kinase inhibitors” (Genosco, priority 2009, dated 2013)

Columns and labels:
[1] = molecular target: T1, human ZAP70 (Homo sapiens, UniProt P43403); experiment: Inhibition of enzymatic kinase activity (LANCE Ulight); type: biochemical; details: at 1 μM concentration; read-out: ZAP70 percentage inhibition
T1 construct: Purified full-length human SYK, ZAP70, PIM1, PYK2; purchased Carna Biosciences
T1 sequence (P43403 1-619): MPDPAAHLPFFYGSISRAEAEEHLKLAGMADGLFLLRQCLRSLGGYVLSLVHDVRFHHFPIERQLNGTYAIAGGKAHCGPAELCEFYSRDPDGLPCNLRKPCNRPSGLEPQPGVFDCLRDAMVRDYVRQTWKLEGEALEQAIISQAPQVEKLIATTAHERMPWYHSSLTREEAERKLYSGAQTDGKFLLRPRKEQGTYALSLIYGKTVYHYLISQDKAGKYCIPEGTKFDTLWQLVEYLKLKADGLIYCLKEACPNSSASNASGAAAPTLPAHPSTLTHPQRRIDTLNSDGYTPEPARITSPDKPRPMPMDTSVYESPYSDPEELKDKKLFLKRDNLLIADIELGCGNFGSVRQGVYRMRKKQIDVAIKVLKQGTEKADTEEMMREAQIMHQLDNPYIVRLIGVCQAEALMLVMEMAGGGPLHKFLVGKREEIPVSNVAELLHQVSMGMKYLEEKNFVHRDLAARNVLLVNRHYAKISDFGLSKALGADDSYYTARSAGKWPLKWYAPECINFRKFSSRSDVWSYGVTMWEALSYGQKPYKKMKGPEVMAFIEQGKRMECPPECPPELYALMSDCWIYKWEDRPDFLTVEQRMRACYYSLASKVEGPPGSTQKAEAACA

[2] = molecular target: truncated human LRRK2 (Homo sapiens, UniProt Q5S007); experiment: as above; type: biochemical
truncated human LRRK2, sequence (Q5S007 1879-2138 limits assumed): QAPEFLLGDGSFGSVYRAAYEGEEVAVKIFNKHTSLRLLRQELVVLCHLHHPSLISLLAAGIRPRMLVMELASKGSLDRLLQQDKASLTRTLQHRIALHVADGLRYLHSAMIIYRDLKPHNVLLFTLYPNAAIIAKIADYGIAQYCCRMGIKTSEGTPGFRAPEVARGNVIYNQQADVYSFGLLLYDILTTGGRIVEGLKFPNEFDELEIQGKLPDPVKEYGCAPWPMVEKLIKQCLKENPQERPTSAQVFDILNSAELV

[3] = molecular target: T2, truncated human RET (Homo sapiens, UniProt P07949); experiment: as above; type: biochemical
T2 construct: truncated human FAK, RET, FLT3, JAK2, and LRRK2 (CARNA BIOSCIENCES™); purchased Carna Biosciences
T2 sequence (P07949 658-1114 limits assumed): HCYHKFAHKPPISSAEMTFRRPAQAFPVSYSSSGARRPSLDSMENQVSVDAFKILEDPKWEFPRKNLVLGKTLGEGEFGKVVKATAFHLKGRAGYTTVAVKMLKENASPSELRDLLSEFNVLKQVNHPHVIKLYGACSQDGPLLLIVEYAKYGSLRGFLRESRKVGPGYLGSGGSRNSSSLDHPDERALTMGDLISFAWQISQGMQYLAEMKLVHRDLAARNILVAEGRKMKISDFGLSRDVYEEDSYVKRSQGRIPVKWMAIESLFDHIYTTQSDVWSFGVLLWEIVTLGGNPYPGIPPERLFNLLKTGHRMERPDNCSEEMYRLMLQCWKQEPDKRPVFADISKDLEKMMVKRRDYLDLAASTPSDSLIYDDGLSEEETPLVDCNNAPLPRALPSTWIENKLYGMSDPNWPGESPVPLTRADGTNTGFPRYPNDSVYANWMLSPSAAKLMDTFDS

[4] = molecular target: T3, truncated human FAK (Homo sapiens, UniProt Q05397); experiment: as above; type: biochemical; details: at 1 μM concentration; read-out: FAK percentage inhibition
T3 construct: truncated human FAK, RET, FLT3, JAK2, and LRRK2 (CARNA BIOSCIENCES™); purchased Carna Biosciences
T3 sequence (Q05397 376-1052 limits assumed): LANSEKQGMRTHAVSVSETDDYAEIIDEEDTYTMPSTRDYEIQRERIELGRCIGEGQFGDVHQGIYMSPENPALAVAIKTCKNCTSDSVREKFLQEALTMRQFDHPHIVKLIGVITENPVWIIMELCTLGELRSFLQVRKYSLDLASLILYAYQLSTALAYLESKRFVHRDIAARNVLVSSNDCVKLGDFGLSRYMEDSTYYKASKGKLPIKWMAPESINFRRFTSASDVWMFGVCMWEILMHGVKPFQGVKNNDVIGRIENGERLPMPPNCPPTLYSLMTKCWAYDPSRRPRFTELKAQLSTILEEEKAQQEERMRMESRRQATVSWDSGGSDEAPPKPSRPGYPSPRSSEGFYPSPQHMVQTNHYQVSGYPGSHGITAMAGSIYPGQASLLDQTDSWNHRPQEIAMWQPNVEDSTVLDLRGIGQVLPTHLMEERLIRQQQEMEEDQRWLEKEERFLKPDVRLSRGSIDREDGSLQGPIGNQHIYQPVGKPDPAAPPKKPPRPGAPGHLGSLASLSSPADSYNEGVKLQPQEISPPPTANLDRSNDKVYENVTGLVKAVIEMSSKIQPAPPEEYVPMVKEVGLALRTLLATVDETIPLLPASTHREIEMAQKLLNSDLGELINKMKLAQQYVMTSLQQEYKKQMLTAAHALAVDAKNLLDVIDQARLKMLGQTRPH

[5] = test system: 786-0; experiment: cells; type: cell-based; details: 786-0 (Renal Cancer)
[6] = test system: K-562; experiment: cells; type: cell-based; details: K-562 (Leukemia)

O=c1[nH]ccc2nc(N3CCC(O)CC3)nc(Nc3cccc(C(F)(F)F)c3)c12 [Compound 6, 2-(4-hydroxypiperidin-1-yl)-4-(3-(trifluoromethyl)phenylamino)pyrido[4,3-d]pyrimidine-5(6H)-one]
inhibition at 1 µM [1]: 49% | IC50 [2]: 0.054 µM | IC50 [3]: 0.0942 µM | inhibition at 1 µM [4]: 78% | TGI [5]: 100 µM | GI50 ([5]; Homo sapiens): 2.04 µM | IC50 ([5]; Homo sapiens): 8.13 µM | CC50 ([5]; Homo sapiens, read-out: LC50 (the source's name)): 100 µM | GI50 ([6]; Homo sapiens, K562): 3.16 µM | IC50 ([6]; Homo sapiens, K562): 3.98 µM | CC50 ([6]; Homo sapiens, K562, read-out: LC50 (the source's name)): 100 µM | TGI [6]: 100 µM
